According to patent US7119094B1, “Substituted polycyclic aryl and heteroarpyl pyrazinones useful for selective inhibition of the coagulation cascade” (Warner-Lambert Company, priority 2000, dated 2006):
Like-named read-outs stand apart in the source and are kept apart here.

Tests used:
[1] = biological target: T1, recombinant soluble tissue factor and recombinant human factor VIIa (TF-VIIa) (Homo sapiens, UniProt P08709); assay: TF-VIIa Assay; assay type: biochemical
T1 construct: conversion of coagulation factor VII to VIIa by Xa; purchased American Diagnostica, Greenwich Conn; host or cells: factor VIIa purchased; soluble TF made in house in E. coli
T1 sequence (P08709 213-466 limits assumed): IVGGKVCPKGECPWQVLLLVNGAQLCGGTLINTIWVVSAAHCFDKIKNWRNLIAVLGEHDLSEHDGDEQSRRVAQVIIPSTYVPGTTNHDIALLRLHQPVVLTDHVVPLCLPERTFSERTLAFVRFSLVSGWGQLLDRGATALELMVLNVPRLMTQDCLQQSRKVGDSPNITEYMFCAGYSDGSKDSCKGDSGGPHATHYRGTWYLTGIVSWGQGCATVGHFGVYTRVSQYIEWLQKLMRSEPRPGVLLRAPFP
T1 sequence (P08709 61-212 limits assumed): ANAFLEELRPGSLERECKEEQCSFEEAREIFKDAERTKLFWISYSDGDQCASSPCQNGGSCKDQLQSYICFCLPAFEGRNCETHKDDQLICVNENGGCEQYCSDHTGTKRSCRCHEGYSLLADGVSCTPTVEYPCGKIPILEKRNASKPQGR
T1 sequence (P13726 33-251 partner limits assumed): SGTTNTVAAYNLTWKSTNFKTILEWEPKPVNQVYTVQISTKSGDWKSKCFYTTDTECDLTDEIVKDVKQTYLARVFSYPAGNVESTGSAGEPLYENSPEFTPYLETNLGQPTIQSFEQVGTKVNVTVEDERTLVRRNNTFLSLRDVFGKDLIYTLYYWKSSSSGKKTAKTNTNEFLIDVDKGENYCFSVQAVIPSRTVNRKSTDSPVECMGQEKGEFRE

[2] = biological target: T2, Trypsin (type 1× from porcine pancreas) (Sus scrofa, UniProt P00761); assay: Trypsin Assay; assay type: biochemical
T2 construct: Trypsin (5 ug/ml; type 1× from porcine pancreas); purchased Sigma, St. Louis Mo; host or cells: porcine pancreas
T2 sequence (P00761 9-231): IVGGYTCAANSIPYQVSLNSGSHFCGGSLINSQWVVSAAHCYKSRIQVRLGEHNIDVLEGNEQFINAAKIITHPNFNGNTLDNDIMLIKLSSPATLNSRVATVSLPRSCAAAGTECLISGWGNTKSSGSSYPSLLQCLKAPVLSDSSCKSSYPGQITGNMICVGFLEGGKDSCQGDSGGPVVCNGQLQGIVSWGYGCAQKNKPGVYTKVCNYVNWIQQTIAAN

Structure (SMILES)	% Inhibition TF-VIIa (100 νM) ([1]; inhibitor at 100 νM)	% Inhibition Trpysin II (100 νM) ([2]; inhibitor at 100 νM)	% Inhibition TF-VIIa (100 νM) [1]	% Inhibition Trpysin II (100 νM) [2]
O=C(Cn1c(-c2ccc(Cl)cc2)c(Cl)nc(NCCc2ccccc2)c1=O)NCCc1ccncc1 [Example E-0018]	1%	4%	–	–
COc1ccc(-c2c(Cl)nc(NCc3ccncc3)c(=O)n2CC(=O)NCCc2ccncc2)cc1 [Example E-0040]	0%	4%	–	–
O=C(Cn1c(-c2ccc3c(c2)OCO3)c(Cl)nc(NCCc2cccnc2)c1=O)NCCc1ccncc1 [Example E-0045]	0%	4%	–	–
O=C(Cn1c(-c2ccc(-c3ccccc3)cc2)c(Cl)nc(NCc2ccccc2)c1=O)NCCc1ccncc1 [Example E-0109]	–	–	2%	12%
O=C(Cn1c(CCc2ccccc2)c(Cl)nc(NCCN2CCOCC2)c1=O)NCCc1ccncc1 [Example E-0071]	0%	0%	–	–
O=C(Cn1c(-c2cccc(Cl)c2)c(Cl)nc(NCCc2cccc(Cl)c2)c1=O)NCCc1cccnc1 [Example E-0092]	1%	9%	–	–
O=C(Cn1c(-c2ccc(Cl)cc2)c(Cl)nc(NCCc2ccncc2)c1=O)NCCc1ccncc1 [Example E-0030]	0%	4%	–	–
COc1ccc(-c2c(Cl)nc(NCCc3cccc(Cl)c3)c(=O)n2CC(=O)NCCc2ccncc2)cc1 [Example E-0103]	2%	11%	–	–
COc1ccc(-c2c(Cl)nc(NCCc3ccccc3)c(=O)n2CC(=O)NCCc2ccncc2)cc1 [Example E-0034]	0%	3%	–	–
Cc1c(Cl)nc(NCc2ccccc2)c(=O)n1CC(=O)NCCc1ccncc1 [Example E-0001]	0%	0%	–	–
O=C(Cn1c(-c2cccc(Cl)c2)c(Cl)nc(NCCc2ccccc2)c1=O)NCCc1cccnc1 [Example E-0089]	3%	8%	–	–
COc1ccc(-c2c(Cl)nc(NCc3ccccc3)c(=O)n2CC(=O)NCCc2cccnc2)cc1 [Example E-0098]	0%	8%	–	–
O=C(Cn1c(-c2cccc(Cl)c2)c(Cl)nc(NCCc2cccc(Cl)c2)c1=O)NCCc1ccncc1 [Example E-0091]	1%	8%	–	–
O=C(Cn1c(-c2cccc(Cl)c2)c(Cl)nc(NCCc2ccccc2)c1=O)NCCc1ccncc1 [Example E-0076]	0%	10%	–	–
O=C(Cn1c(-c2cccc(Cl)c2)c(Cl)nc(NCCc2ccc(Cl)cc2)c1=O)NCCc1cccnc1 [Example E-0083]	2%	6%	–	–
O=C(Cn1c(-c2ccc(-c3ccccc3)cc2)c(Cl)nc(NCCc2ccccc2)c1=O)NCCc1ccncc1 [Example E-0050]	–	–	0%	0%
O=C(Cn1c(-c2ccc3c(c2)OCO3)c(Cl)nc(NCCc2ccc(Cl)cc2)c1=O)NCCc1ccncc1 [Example E-0044]	0%	3%	–	–
O=C(Cn1c(-c2ccc(Cl)cc2)c(Cl)nc(NCCc2cccnc2)c1=O)NCCc1ccncc1 [Example E-0021]	0%	5%	–	–
O=C(Cn1c(-c2ccc3c(c2)OCO3)c(Cl)nc(NCc2ccncc2)c1=O)NCCc1ccncc1 [Example E-0048]	0%	0%	–	–
O=C(Cn1c(Cc2ccccc2)c(Cl)nc(NCCc2ccncc2)c1=O)NCCc1ccncc1 [Example E-0062]	0%	0%	–	–
O=C(Cn1c(Cc2ccccc2)c(Cl)nc(NCc2ccccc2)c1=O)NCCc1ccncc1 [Example E-0057]	0%	0%	–	–
O=C(Cn1c(Cc2ccccc2)c(Cl)nc(NCCc2ccc(Cl)cc2)c1=O)NCCc1ccncc1 [Example E-0060]	0%	0%	–	–
O=C(Cn1c(-c2cccc(Cl)c2)c(Cl)nc(NCCc2ccccc2)c1=O)NCCc1cccnc1 [Example E-0077]	0%	7%	–	–

Structure (SMILES)	% Inhibition TF-VIIa (100 νM) ([1]; inhibitor at 100 νM)	% Inhibition Trpysin II (100 νM) ([2]; inhibitor at 100 νM)	% Inhibition TF-VIIa (100 νM) [1]	% Inhibition Trpysin II (100 νM) [2]
O=C(Cn1c(-c2cccc(Cl)c2)c(Cl)nc(NCCc2ccccc2)c1=O)NCCc1ccncc1 [Example E-0088]	0%	9%	–	–
O=C(Cn1c(CCc2ccccc2)c(Cl)nc(NCCc2cccc(Cl)c2)c1=O)NCCc1ccncc1 [Example E-0067]	0%	0%	–	–
Cc1c(Cl)nc(NCCc2cccnc2)c(=O)n1CC(=O)NCCc1ccncc1 [Example E-0005]	0%	0%	–	–
COc1ccc(-c2c(Cl)nc(NCCc3cccc(Cl)c3)c(=O)n2CC(=O)NCCc2cccnc2)cc1 [Example E-0104]	3%	9%	–	–
O=C(Cn1c(-c2cccc(Cl)c2)c(Cl)nc(NCc2ccccc2)c1=O)NCCc1ccncc1 [Example E-0073]	0%	6%	–	–
O=C(Cn1c(-c2ccc3c(c2)OCO3)c(Cl)nc(NCCc2ccncc2)c1=O)NCCc1ccncc1 [Example E-0046]	0%	4%	–	–
O=C(Cn1c(-c2cccc(Cl)c2)c(Cl)nc(NCCc2ccc(Cl)cc2)c1=O)NCCc1ccncc1 [Example E-0094]	2%	7%	–	–
O=C(Cn1c(-c2ccccc2)c(Cl)nc(NCCc2cccc(Cl)c2)c1=O)NCCc1ccncc1 [Example E-0011]	0%	0%	–	–
O=C(Cn1c(CCc2ccccc2)c(Cl)nc(NCCc2ccncc2)c1=O)NCCc1ccncc1 [Example E-0070]	0%	0%	–	–
COc1ccc(-c2c(Cl)nc(NCCc3ccc(Cl)cc3)c(=O)n2CC(=O)NCCc2ccncc2)cc1 [Example E-0106]	5%	9%	–	–
O=C(Cn1c(-c2ccc3c(c2)OCO3)c(Cl)nc(NCCc2ccccc2)c1=O)NCCc1ccncc1 [Example E-0042]	0%	5%	–	–
O=C(Cn1c(-c2ccc(-c3ccccc3)cc2)c(Cl)nc(NCCc2ccc(Cl)cc2)c1=O)NCCc1ccncc1 [Example E-0118]	–	–	12%	9%
O=C(Cn1c(-c2ccc(-c3ccccc3)cc2)c(Cl)nc(NCc2ccccc2)c1=O)NCCc1ccncc1 [Example E-0049]	–	–	2%	0%
Cc1c(Cl)nc(NCCc2ccc(Cl)cc2)c(=O)n1CC(=O)NCCc1ccncc1 [Example E-0004]	0%	0%	–	–
O=C(Cn1c(-c2ccccc2)c(Cl)nc(NCCc2ccncc2)c1=O)NCCc1ccncc1 [Example E-0014]	0%	0%	–	–
O=C(Cn1c(-c2ccc(Cl)cc2)c(Cl)nc(NCc2ccncc2)c1=O)NCCc1ccncc1 [Example E-0032]	0%	3%	–	–
O=C(Cn1c(-c2ccc(Cl)cc2)c(Cl)nc(NCCc2cccnc2)c1=O)NCCc1ccncc1 [Example E-0029]	0%	2%	–	–
O=C(Cn1c(-c2cccc(Cl)c2)c(Cl)nc(NCc2ccccc2)c1=O)NCCc1cccnc1 [Example E-0086]	0%	11%	–	–
O=C(Cn1c(-c2ccc(Cl)cc2)c(Cl)nc(NCCc2cccc(Cl)c2)c1=O)NCCc1ccncc1 [Example E-0019]	0%	2%	–	–
O=C(Cn1c(-c2ccc(Cl)cc2)c(Cl)nc(NCCc2ccc(Cl)cc2)c1=O)NCCc1ccncc1 [Example E-0020]	0%	4%	–	–
O=C(Cn1c(-c2ccc(Cl)cc2)c(Cl)nc(NCCN2CCOCC2)c1=O)NCCc1ccncc1 [Example E-0023]	0%	1%	–	–
O=C(Cn1c(-c2cccc(Cl)c2)c(Cl)nc(NCCc2ccc(Cl)cc2)c1=O)NCCc1cccnc1 [Example E-0095]	2%	9%	–	–
